Several values for one entry are separate records, joined by “and”; a condition that tells them apart may be missing. Identical values can stand only once. Inconclusive results and toxic doses are left out.
Tested on: L1210 leukemia ip in BDF1 mice, survival T/C
Assay: NCI In Vivo Anticancer Drug Screen. Data for tumor model L1210 Leukemia (intraperitoneal) in B6D2F1 (BDF1) mice
Conditions: endpoint: mean survival time, higher = longer survival
In short: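 Tumor was transplanted into mice, which were then dosed with test compound or vehicle alone. Survival was recorded for each group, and the treated figure was expressed relative to the control figure.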

[1] = dose: 100.0 mg/kg/injection, schedule: Q01DX009 (ip), vehicle: saline with Tween-80
[2] = dose: 200.0 mg/kg/injection, schedule: Q01DX009 (ip), vehicle: saline with Tween-80
[3] = dose: 25.0 mg/kg/injection, schedule: Q04DX002 (ip), vehicle: saline
[4] = dose: 50.0 mg/kg/injection, schedule: Q04DX002 (ip), vehicle: saline
[5] = dose: 100.0 mg/kg/injection, schedule: Q04DX002 (ip), vehicle: saline
[6] = dose: 100.0 mg/kg/injection, schedule: Q04DX002 (ip), vehicle: saline with Tween-80
[7] = dose: 200.0 mg/kg/injection, schedule: Q04DX002 (ip), vehicle: saline with Tween-80
[8] = dose: 400.0 mg/kg/injection, schedule: Q04DX002 (ip), vehicle: saline with Tween-80
[9] = dose: 100.0 mg/kg/injection, schedule: Q01DX001 (ip), vehicle: carboxymethylcellulose (CMC)
[10] = dose: 200.0 mg/kg/injection, schedule: Q01DX001 (ip), vehicle: carboxymethylcellulose (CMC)
[11] = dose: 400.0 mg/kg/injection, schedule: Q01DX001 (ip), vehicle: carboxymethylcellulose (CMC)
[12] = dose: 100.0 mg/kg/injection, schedule: Q01DX009 (ip), vehicle: Klucel (hydroxypropylcellulose) (HPC)
[13] = dose: 200.0 mg/kg/injection, schedule: Q01DX009 (ip), vehicle: Klucel (hydroxypropylcellulose) (HPC)
[14] = dose: 400.0 mg/kg/injection, schedule: Q01DX009 (ip), vehicle: Klucel (hydroxypropylcellulose) (HPC)
[15] = dose: 200.0 mg/kg/injection, schedule: Q04DX002 (ip), vehicle: saline
[16] = dose: 100.0 mg/kg/injection, schedule: Q04DX003 (ip), vehicle: saline with Tween-80
[17] = dose: 200.0 mg/kg/injection, schedule: Q04DX003 (ip), vehicle: saline with Tween-80
[18] = dose: 400.0 mg/kg/injection, schedule: Q04DX003 (ip), vehicle: saline with Tween-80
[19] = dose: 100.0 mg/kg/injection, schedule: Q01DX001 (ip), vehicle: Klucel (hydroxypropylcellulose) (HPC)

For `CCOC(=O)/C=C/SCCCC(=O)O`, the T/C [1] was 96 % of control and the T/C [2] was 88 % of control.
With `O=c1[nH]c(=O)c2ccccc2o1` the T/C (dose: 2.5 mg/kg/injection, schedule: Q04DX003 (ip), vehicle: saline) was 100 % of control, the T/C (dose: 5.0 mg/kg/injection, schedule: Q04DX003 (ip), vehicle: saline) was 105 % of control and the T/C (dose: 10.0 mg/kg/injection, schedule: Q04DX003 (ip), vehicle: saline) was 100 % of control. For the same compound, the T/C [1] was 105 % of control.
`Nc1ccn(C2OC(COC(=O)C34CC5CC(CC(C5)C3)C4)C(O)C2O)c(=O)n1` (stereo unspecified) was tested, and the T/C (dose: 50.0 mg/kg/injection, schedule: Q01DX001 (ip), vehicle: other) was 156 % of control and 170 % of control, the T/C (dose: 100.0 mg/kg/injection, schedule: Q01DX001 (ip), vehicle: other) was 165 % of control and 248 % of control and the T/C (dose: 200.0 mg/kg/injection, schedule: Q01DX001 (ip), vehicle: other) was 213 % of control and 300 % of control.
`OCC(O)COc1ccnc2ccccc12` (stereo unspecified) was tested, and the T/C (dose: 100.0 mg/kg/injection, schedule: Q01DX009 (ip), vehicle: acetone) was 105 % of control, the T/C (dose: 200.0 mg/kg/injection, schedule: Q01DX009 (ip), vehicle: acetone) was 97 % of control and the T/C (dose: 400.0 mg/kg/injection, schedule: Q01DX009 (ip), vehicle: acetone) was 97 % of control.
With `COc1ccc(CCN)cc1` the T/C [3] was 101 % of control, the T/C [4] was 97 % of control and the T/C [5] was 97 % of control and 109 % of control.
With `Cn1cnnc1[N+](=O)[O-]` the T/C (dose: 100.0 mg/kg/injection, schedule: Q04DX003 (ip), vehicle: saline sonified) was 105 % of control.
`O=C(N1CCOCC1)C1(c2ccccc2)CCNCC1` was tested, and the T/C (dose: 100.0 mg/kg/injection, schedule: Q04DX003 (ip), vehicle: saline) was 98 % of control and the T/C (dose: 200.0 mg/kg/injection, schedule: Q04DX003 (ip), vehicle: saline) was 93 % of control.
With `CC(=O)OC(C)c1ccc(Cl)cc1` (stereo unspecified) the T/C [6] was 101 % of control, the T/C [7] was 97 % of control and the T/C [8] was 93 % of control.
With `CC1(C)OC(C(O)COC(=O)c2ccc([N+](=O)[O-])cc2)C(C(SCc2ccccc2)SCc2ccccc2)O1` (stereo unspecified) the T/C [9] was 93 % of control, the T/C [10] was 89 % of control and the T/C [11] was 95 % of control.
`O=C(COCC(=O)N/N=C/c1ccc(Cl)cc1Cl)N/N=C\c1cc(Cl)cc(Cl)c1` was tested, and the T/C [12] was 93 % of control and the T/C [13] was 88 % of control.
`O=C(c1ccc([N+](=O)[O-])cc1)C(Br)C(Br)c1ccncc1` (stereo unspecified) was tested, and the T/C [12] was 89 % of control, the T/C [13] was 89 % of control and the T/C [14] was 93 % of control.
For `CCOC(=O)C(NC(C)=O)(C(=O)OCC)C(=O)c1ccc(Cl)cc1`, the T/C [9] was 89 % of control and the T/C [10] was 94 % of control.
`CCCCN=C(N)CCl` was tested, and the T/C [3] was 106 % of control, the T/C [4] was 95 % of control and the T/C [5] was 124 % of control.
For `C=C1CC(CCCC2CC(=C)C(=O)O2)OC1=O` (stereo unspecified), the T/C [5] was 101 % of control and the T/C [15] was 111 % of control.
`Cc1ccc(S(=O)(=O)OCC(F)(F)C(F)(F)C(F)(F)C(F)(F)C(F)(F)C(F)(F)C(F)(F)F)cc1` was tested, and the T/C (dose: 100.0 mg/kg/injection, schedule: Q01DX009 (ip), vehicle: saline) was 94 % of control, the T/C (dose: 200.0 mg/kg/injection, schedule: Q01DX009 (ip), vehicle: saline) was 88 % of control and the T/C (dose: 400.0 mg/kg/injection, schedule: Q01DX009 (ip), vehicle: saline) was 93 % of control.
In the case of `CC(=O)NC1C(OC(=O)c2ccccc2)OC2COCOC2C1OC(=O)c1ccccc1` (stereo unspecified), the T/C (dose: 100.0 mg/kg/injection, schedule: Q01DX001 (ip), vehicle: saline with Tween-80) was 90 % of control, the T/C (dose: 200.0 mg/kg/injection, schedule: Q01DX001 (ip), vehicle: saline with Tween-80) was 97 % of control and the T/C (dose: 400.0 mg/kg/injection, schedule: Q01DX001 (ip), vehicle: saline with Tween-80) was 92 % of control.
`CCCNC(=O)Nc1ccc(C)cc1C` was tested, and the T/C [1] was 96 % of control, the T/C [16] was 97 % of control and the T/C [2] was 97 % of control. The T/C [17] was 97 % of control, the T/C (dose: 400.0 mg/kg/injection, schedule: Q01DX009 (ip), vehicle: saline with Tween-80) was 100 % of control and the T/C [18] was 101 % of control.
With `CCOc1ccc(/C=N/NC(=O)Cc2cccc3ccccc23)cc1OC` the T/C [12] was 95 % of control, the T/C [13] was 98 % of control and the T/C [14] was 97 % of control.
With `O=C(O)COc1nc2ccccc2s1` the T/C [12] was 95 % of control, the T/C (dose: 100.0 mg/kg/injection, schedule: Q04DX003 (ip), vehicle: alcohol) was 105 % of control and the T/C [13] was 96 % of control. For the same compound, the T/C (dose: 200.0 mg/kg/injection, schedule: Q04DX003 (ip), vehicle: alcohol) was 98 % of control, the T/C [14] was 88 % of control and the T/C (dose: 400.0 mg/kg/injection, schedule: Q04DX003 (ip), vehicle: alcohol) was 94 % of control.
For `COc1ccc2c(ccc3nc(C)[nH]c(=O)c32)c1`, the T/C [19] was 91 % of control.
`C/C=C/CC1C(=O)N(c2ccccc2)N(c2ccccc2)C1=O` was tested, and the T/C (dose: 25.0 mg/kg/injection, schedule: Q01DX009 (ip), vehicle: Klucel (hydroxypropylcellulose) (HPC)) was 106 % of control, the T/C (dose: 50.0 mg/kg/injection, schedule: Q01DX009 (ip), vehicle: Klucel (hydroxypropylcellulose) (HPC)) was 95 % of control and the T/C [12] was 97 % of control.
For `O=C(O)c1ccccc1C(=O)OC1CC2CCC1C2` (stereo unspecified), the T/C [19] was 100 % of control, the T/C (dose: 200.0 mg/kg/injection, schedule: Q01DX001 (ip), vehicle: Klucel (hydroxypropylcellulose) (HPC)) was 94 % of control and the T/C (dose: 400.0 mg/kg/injection, schedule: Q01DX001 (ip), vehicle: Klucel (hydroxypropylcellulose) (HPC)) was 98 % of control.
With `CC1CC=C(N2CCOCC2)CC1` (stereo unspecified) the T/C [12] was 98 % of control, the T/C [13] was 97 % of control and the T/C [14] was 103 % of control.
`O=C(CCCC(=O)NO)NO` was tested, and the T/C [6] was 113 % of control, the T/C [5] was 100 % of control and the T/C [7] was 100 % of control. The T/C [15] was 97 % of control, the T/C [8] was 97 % of control and the T/C (dose: 400.0 mg/kg/injection, schedule: Q04DX002 (ip), vehicle: saline) was 113 % of control.
`CC(=O)Cc1ccc(C(=O)C(C)Cc2ccc(C(C)=O)cc2)cc1` (stereo unspecified) was tested, and the T/C [16] was 90 % of control, the T/C [17] was 110 % of control and the T/C [18] was 92 % of control.
In the case of `OCCNCCc1ccccc1`, the T/C (dose: 75.0 mg/kg/injection, schedule: Q01DX009 (ip), vehicle: carboxymethylcellulose (CMC)) was 104 % of control and the T/C (dose: 150.0 mg/kg/injection, schedule: Q01DX009 (ip), vehicle: carboxymethylcellulose (CMC)) was 107 % of control.
In the case of `O=C(NCCCCCCCCCCNC(=O)Nc1ccc(C2=NCC(O)CN2)cc1)Nc1ccc(C2=NCC(O)CN2)cc1` (stereo unspecified), the T/C (dose: 4.0 mg/kg/injection, schedule: Q01DX Z (ip), vehicle: water) was 117 % of control, the T/C (dose: 8.0 mg/kg/injection, schedule: Q01DX Z (ip), vehicle: water) was 112 % of control and the T/C (dose: 16.0 mg/kg/injection, schedule: Q01DX Z (ip), vehicle: water) was 106 % of control.
In the case of `CC(=O)CSc1ccccn1`, the T/C [9] was 102 % of control, the T/C [10] was 94 % of control and the T/C [11] was 96 % of control.
`CC(CC(C)(C)C)C(=O)Cl` (stereo unspecified) was tested, and the T/C (dose: 100.0 mg/kg/injection, schedule: Q01DX001 (ip), vehicle: saline) was 95 % of control, the T/C (dose: 200.0 mg/kg/injection, schedule: Q01DX001 (ip), vehicle: saline) was 92 % of control and the T/C (dose: 400.0 mg/kg/injection, schedule: Q01DX001 (ip), vehicle: saline) was 108 % of control.
In the case of `C[n+]1ccc(/C=C/c2csc3ccccc23)cc1`, the T/C (dose: 5.0 mg/kg/injection, schedule: Q01DX001 (ip), vehicle: carboxymethylcellulose (CMC)) was 107 % of control, the T/C (dose: 10.0 mg/kg/injection, schedule: Q01DX001 (ip), vehicle: carboxymethylcellulose (CMC)) was 96 % of control and the T/C (dose: 20.0 mg/kg/injection, schedule: Q01DX001 (ip), vehicle: carboxymethylcellulose (CMC)) was 91 % of control. The T/C (dose: 40.0 mg/kg/injection, schedule: Q01DX001 (ip), vehicle: carboxymethylcellulose (CMC)) was 98 % of control.
